Experimental data from patent US9617517B2, “Small chemical compound which promotes induction of differentiation of stem cells into insulin-producing cells and method for inducing differentiation of stem cells into insulin-producing cells using said small chemical compound” (NATIONAL UNIVERSITY CORPORATION KUMAMOTO UNIVERSITY, priority 2011, dated 2017).

How the values were obtained:
differentiated ES cells = assay: Real time PCR of gene expression in differentiated ES cells; format: cell-based, mouse; settings: TBZ 2.5 μM
[1] = system: mouse ES cells (Pdx1/GFP); assay: Differentiation of mouse ES cells into insulin positive cells on nano fiber plate, immunostaining and quantitative image analysis; format: cell-based
Text: Two ES cell lines, one expressing green fluorescent protein (GFP) under the control of insulin 1 promoter, designed ING (Higuchi Y., Shiraki N., Yamane K, Qin Z., Mochitate K., Araki K., Senokuchi K., Yamagata K., Hara M., Kume K., and Kume S., Synthesized basement membranes direct the differentiation of mouse embryonic stem cells into pancreatic lineages. J. Cell Science, 123, 2733-2742, 2010), and the other one expressing GFP under the control of Pdx1 promoter, designated SK7 (Shiraki N, Yoshida T, Araki K, et al. Guided differentiation of embryonic stem cells into Pdx1-expressing regional-specific definitive endoderm. Stem Cells. 2008; 26:874-885), were used. Both cell lines were maintained on mouse embryonic fibroblast (MEF) feeders in Glasgow minimum essential medium (Invitrogen) containing 1000 units/ml leukemia inhibitory factor (LIF; Chemicon), 15% Knocked-out Serum Replacement (KSR; Gibco), 1% fetal bovine serum (FBS; Hyclone), 100 μM nonessential amino acids (NEAA; Invitrogen), 2 mM L-glutamine (L-Gln; Invitrogen), 1 mM sodium pyruvate (Invitrogen), 50 units/ml penicillin and 50 μg/ml streptomycin (PS; Invitrogen) and 100 μM β-mercaptoethanol (β-ME; Sigma), as ES maintenance medium.
For the differentiation studies, ES cells were plated at 5,000 cells per well in Corning 96 well plate with Ultra-Web Synthetic Polyamine Surface (#3873XX1, Corning Coster, Cambridge, Miss.), and cultured. The cells were cultured in Dulbecco's Modified Eagle Medium (DMEM: Invitrogen, Glasgow, UK) containing 4500 mg/L glucose, supplemented with NEAA, L-Gln, PS, β-ME, 10 μg/ml insulin (Sigma-Aldrich), 5.5 μg/ml transferrin (Sigma-Aldrich), 6.7 pg/ml selenium (Sigma-Aldrich), and 0.25% Albmax (Invitrogen), 10 ng/mL recombinant human activin-A (R&D Systems, Minneapolis, Minn.), 5 ng/mL; recombinant human bFGF for 7 days (d1-d7) (I of FIG. 1). And then, the medium was changed to RPMI 1640 medium (Invitrogen) containing 2000 mg/L glucose (Sigma, St Louis, Mo.), 1 μM Retinoic acid (Sigma-Aldrich), 50 ng/ml Human Recombinant Fibroblast Growth Factor-10 (Peprotech, Rocky Hill, N.J.), B27 SUPPLEMENT (Invitrogen) and 0.25 μM 3-Keto-N-(aminoethyl-aminocaproyl-dihydrocinnamoyl) cyclopamine Shh Signaling Antagonist II (Calbiochem, San Diego, Calif.) on d7 to d11 (II of FIG. 1). Finally, the medium was switched to DMEM containing 1000 mg/L glucose supplemented with NEAA, L-Gln, PS, β-ME, 10 μg/ml insulin (Sigma-Aldrich), 5.5 μg/ml transferrin (Sigma-Aldrich), 6.7 pg/ml selenium (Sigma-Aldrich), 0.25% Albmax (Invitrogen) and 10 mM nicotinamide (Sigma-Aldrich) on d11 to d17 (III of FIG. 1). Media were replaced every 2 days with fresh medium and growth factors until d17.
All tested small chemical compounds were solved in dimethyl sulfoxide (DMSO) at given concentration. Compounds were added on d11, d13 and d15 in a medium. Final concentration of DMSO was adjusted at 1.0% in all experiments for compounds.
After 17 days cell culture, cultured ES cells were fixed in 4% paraformaldehyde in PBS for 30 min at room temperature, and rinsed several times with PBS. Then, cells were incubated in the added diluted primary antibody in 20% Blocking One (Nacalai tesque, Tokyo, Japan) in PEST (0.1% Tween-20 in PBS) in a humidified chamber for overnight at 4° C. After washing the cells in PBST, cells were incubated with the secondary antibody in 20% Blocking One for 2 hr at room temperature in dark. After washing off the secondary antibody in PBST, cells were counterstained with […] (DAPI) (Roche Diagnostics). The following antibodies were used as First antibodies: Rabbit anti-GFP (MBL International Corp., Woburn, Mass.), Mouse anti-Insulin (Sigma). The following antibodies were used as Secondary antibodies: Alexa 568-conjugated, Alexa 488-conjugated antibodies (Invitrogen) Cells were counterstained with DAPI (Roche Diagnotics, Basel, Switzerland).

CCCC(=O)Nc1ncnc2c1ncn2[C@@H]1O[C@@H]2COP(=O)(O)O[C@H]2[C@H]1OC(=O)CCC [Dibutyryl- cAMP, dibutyrate-cAMP]
expression of Abcc8 (differentiated ES cells; dBu-cAMP 0.6 μM (FIG. 13)): increased remarkably
expression of Glut2 (differentiated ES cells; dBu-cAMP 0.6 μM (FIG. 13)): increased remarkably
expression of MafA (differentiated ES cells; dBu-cAMP 0.6 μM (FIG. 13)): increased slightly
expression of Stx1 (differentiated ES cells; dBu-cAMP 0.6 μM (FIG. 13)): increased slightly
expression level of MafA, time course (differentiated ES cells; dBu-cAMP 0.6 μM from day 11, after day 13 (FIG. 15)): promoted
expression level of Ngn3 (differentiated ES cells; dBu-cAMP 0.6 μM from day 11, day 13 and day 15 (FIG. 15)): increased also
expression level of Insulin1 (differentiated ES cells; dBu-cAMP 0.6 μM from day 11, single after day 13, both after day 15 (FIG. 15)): promoted
increase of number of insulin positive cells ([1]; 0.6 μM dBu-cAMP (FIG. 11B)): about 7 fold
increase of number of insulin-expressing cells ([1]; NS cells, 0.63 μM dBu-cAMP d11-d17 (FIG. 11A)): 2.9 fold
effect on differentiation into insulin-expressing cells ([1]; compound added d11-d17, insulin staining d17 (FIG. 4, 5, 7, 8, 10)): enhanced the differentiation into insulin-expressing cells
Relative value of Ins positive cells ([1]; number of cells with no compound = 1, concentration of each compound (μM), added d11, d13, d15, analysed d17): 4.9
